Biological target: Ras-related protein Rab-2A (Canis lupus familiaris) (UniProt P61105)
Test: Rab2 wildtype GTP-binding inhibitors, SAR follow-up, biochemical, pyrazoline series, Bodipy-FL-GTP, flow cytometry, multiplex (AID 2045)
Settings: Bead-based flow cytometry, Bodipy-FL-GTP binding to Rab2; Ki calculated from EC50

Chain of Ras-related protein Rab-2A (Canis lupus familiaris) (P61105 whole entry, looked up): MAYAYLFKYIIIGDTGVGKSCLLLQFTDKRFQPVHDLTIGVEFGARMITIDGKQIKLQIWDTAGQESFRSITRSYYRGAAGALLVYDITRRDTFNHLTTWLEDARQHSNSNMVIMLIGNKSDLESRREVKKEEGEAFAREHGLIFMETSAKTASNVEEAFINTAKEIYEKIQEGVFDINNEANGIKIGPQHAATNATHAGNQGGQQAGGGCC

Ki [µM]	SMILES
0.06	COc1ccc(C2=NN(c3cccc(F)c3)C(c3ccc(OC)cc3)C2)cc1 (configuration not stated)
0.11	COc1ccc(C2=NN(c3ccc(S(N)(=O)=O)cc3)C(c3ccc(OC)cc3)C2)cc1 (configuration not stated)
